Data on 18 molecules can be found in patent publication US11617777B2, “Cytotoxic and anti-mitotic compounds, and methods of using the same” (ZYMEWORKS BC INC., priority 2013, dated 2023).

For orientation: EC50 means the midpoint of the concentration-response curve.

The first assay deals with Jurkat cells. Nature of the assay: Cytotoxicity of compounds, CellTiter-Glo. The settings on record: Homo sapiens, Jurkat, Table 3; Cytotoxicity of Compounds on Jurkat Cells; read-out: EC50. It counts as cell-based, Human. An excerpt: Cell lines used: Human T-cell leukemia cell line Jurkat (ATCC: TIB-152); HCC1954 (ATCC: CRL. 2338); Human Pancreatic cells lines: AsPC-1 (ATCC: CRL-1682), BxPC-3 (ATCC: CRL.1687), HPAF-II (ATCC: CRL.1997), MiaPaCa2 (ATCC: CRL.1420), PANC-1 (ATCC: CRL.1469), Capan-1 (ATCC: HTB-79), Capan-2 (ATCC: HTB-80) and the Human gastric carcinoma cell line NCI-N87 (ATCC: CRL. 5822); AML-193 (ATCC: CRL.9589), CCRF-CEM (ATCC: CCL-119), DU145 (ATCC: HTB-81), PC-3 (ATCC: CRL.1435), A-431 (ATCC: CRL.1555), HT-29 (ATCC: HTB-38), A-172 (ATCC: CRL.1620), NCI-H358 (ATCC: CRL.5807), A549 (ATCC: CCL-185), Colo-205 (ATCC: CCL-222), MDA-MB-231 (ATCC: HTB-26), OVCAR-3 (ATCC: HTB-161), OV-90 (ATCC: CRL.11732), OE19 (Sigma: 96071721), RT 112/84 (Sigma: 85061106).
On the day prior to adding compounds, HCC1954 AsPC-1, BxPC-3, HPAF-II, MiaPaCa2, PANC-1, Capan-1, Capan-2 and NCI-N87 cells were added to opaque-walled 96-well tissue culture-treated microtiter plates using complete growth medium at a density of 2500 cells/100 microlitre (uL) of medium. These adherant cell lines cells were incubated for one night at 37° C./5% CO2 to allow the cells to attach to the microtiter plate surface. On the day that compounds were added, Jurkat cells are added to separate 96-well microtiter plates at 2500 cells/100 uL using the same growth medium as HCC1954. Compound were first serially diluted using dimethyl sulfoxide, and then the prepared dilutions are added to complete growth medium at five-times the final concentration—compounds were then titrated 1:3, eight steps. A control with no compound (growth medium alone) was included on each microtiter plate in sextuplicate. The prepared compounds titrations were added (twenty-five uL/well) in triplicate. The cells and compound titrations were incubated at 37° C./5% CO2 for three nights. After the incubation, cell viability is measured using CellTiter-Glo® reagent by adding thirty uL of prepared CellTiter-Glo® to each assay well. The assay is incubated for at least twenty minutes in the dark prior to measuring emitted luminescence using a microplate luminometer (500 ms integration time). The collected relative luminescence units (RLU) are converted to % cytotoxicity using the Growth medium alone control mentioned above (% Cytotoxicity=1−[Well RLU/average medium alone control RLU]).
GraphPad Prism was used for generation of EC50 values using three parameter non-linear regression curve fitting.
For orientation: Cellular ATP, detected with luciferase, serves as a proxy for viable cell number.
On to `CN[C@H](C(=O)N[C@H](C(=O)N(C)[C@H](/C=C(\C)C(=O)NS(=O)(=O)C1CCCCC1)C(C)C)C(C)(C)C)C(C)(C)c1ccccc1` [Compound 44, (S,E)-N-(cyclohexylsulfonyl)-2,5-dimethyl-4-((S)—N,3,3-trimethyl-2-((S)-3-methyl-2-(methylamino)-3-phenylbutanamido)butanamido)hex-2-enamide], for which the EC50 stood at 0.114 nM.

Turning to `CN[C@H](C(=O)N[C@H](C(=O)N(C)[C@H](/C=C(\C)C(=O)NS(=O)(=O)Cc1cccnc1)C(C)C)C(C)(C)C)C(C)(C)c1ccccc1` [Compound 45, (S,E)-2,5-dimethyl-N-(pyridin-3-ylmethylsulfonyl)-4-((S)—N,3,3-trimethyl-2-((S)-3-methyl-2-(methylamino)-3-phenylbutanamido)butanamido)hex-2-enamide], the EC50 was determined as 0.869 nM.

Regarding `CN[C@H](C(=O)N[C@H](C(=O)N(C)[C@H](/C=C(\C)C(=O)NS(=O)(=O)c1cccc(NC(=O)C(F)(F)F)c1)C(C)C)C(C)(C)C)C(C)(C)c1ccccc1` [Compound 47, (S,E)-2,5-dimethyl-N-(3-(2,2,2-trifluoroacetamido)phenylsulfonyl)-4-((S)—N,3,3-trimethyl-2-((S)-3-methyl-2-(methylamino)-3-phenylbutanamido)butanamido)hex-2-enamide], the EC50 is 0.261 nM.

As to `CN[C@H](C(=O)N[C@H](C(=O)N(C)[C@H](/C=C(\C)C(=O)NS(=O)(=O)c1cccc(N)c1)C(C)C)C(C)(C)C)C(C)(C)c1ccccc1` [Compound 48, (S,E)-N-(3-aminophenylsulfonyl)-2,5-dimethyl-4-((S)—N,3,3-trimethyl-2-((S)-3-methyl-2-(methylamino)-3-phenylbutanamido)butanamido)hex-2-enamide], the concentration for a half-maximal effect (EC50) is 0.208 nM. The same measure, in the same setting: the result for `CN[C@H](C(=O)N[C@H](C(=O)N(C)[C@H](/C=C(\C)C(=O)NS(=O)(=O)c1cccnc1)C(C)C)C(C)(C)C)C(C)(C)c1ccccc1` [Compound 49, (S,E)-2,5-dimethyl-N-(pyridin-3-ylsulfonyl)-4-((S)—N,3,3-trimethyl-2-((S)-3-methyl-2-(methylamino)-3-phenylbutanamido)butanamido)hex-2-enamide] reads 2.5 nM; that for `CN[C@H](C(=O)N[C@H](C(=O)N(C)[C@H](/C=C(\C)C(=O)NS(=O)(=O)c1cccs1)C(C)C)C(C)(C)C)C(C)(C)c1ccccc1` [Compound 50, (S,E)-2,5-dimethyl-N-(thiophen-2-ylsulfonyl)-4-((S)—N,3,3-trimethyl-2-((S)-3-methyl-2-(methylamino)-3-phenylbutanamido)butanamido)hex-2-enamide], 0.171 nM. Same read-out and setting: as for `CN[C@H](C(=O)N[C@H](C(=O)N(C)[C@H](/C=C(\C)C(=O)NS(=O)(=O)c1ccc(O)cc1)C(C)C)C(C)(C)C)C(C)(C)c1ccccc1` [Compound 51, (S,E)-N-(4-hydroxyphenylsulfonyl)-2,5-dimethyl-4-((S)—N,3,3-trimethyl-2-((S)-3-methyl-2-(methylamino)-3-phenylbutanamido)butanamido)hex-2-enamide], the figure is 0.247 nM. The same measure, in the same setting: the result for `CN[C@H](C(=O)N[C@H](C(=O)N(C)[C@H](/C=C(\C)C(=O)NS(=O)(=O)Cc1ccc(C2(NC(=O)C(F)(F)F)CC2)cc1)C(C)C)C(C)(C)C)C(C)(C)c1ccccc1` [Compound 57, (S,E)-2,5-dimethyl-N-(4-(1-(2,2,2-trifluoroacetamido)cyclopropyl)benzylsulfonyl)-4-((S)—N,3,3-trimethyl-2-((S)-3-methyl-2-(methylamino)-3-phenylbutanamido)butanamido)hex-2-enamide] reads 0.566 nM. With `CN[C@H](C(=O)N[C@H](C(=O)N(C)[C@H](/C=C(\C)C(=O)NS(=O)(=O)Cc1ccc(C2(N)CC2)cc1)C(C)C)C(C)(C)C)C(C)(C)c1ccccc1` [Compound 58, (S,E)-N-(4-(1-aminocyclopropyl)benzylsulfonyl)-2,5-dimethyl-4-((S)—N,3,3-trimethyl-2-((S)-3-methyl-2-(methylamino)-3-phenylbutanamido)butanamido) hex-2-enamide], the EC50 worked out at 0.816 nM.

The assay is the same for the next values; noted with them: Homo sapiens, Jurkat, Table 6; Compound Cytotoxicity on Jurkat; read-out: EC50.
For the molecule `CN[C@H](C(=O)N[C@H](C(=O)N(C)[C@H](/C=C(\C)C(=O)NS(=O)(=O)C1CCCCC1)C(C)C)C(C)(C)C)C(C)(C)c1ccccc1` [Compound 44, (S,E)-N-(cyclohexylsulfonyl)-2,5-dimethyl-4-((S)—N,3,3-trimethyl-2-((S)-3-methyl-2-(methylamino)-3-phenylbutanamido)butanamido)hex-2-enamide], the EC50 turned out to be 1.48 nM. On the same count and under the same terms, the result for `CN[C@H](C(=O)N[C@H](C(=O)N(C)[C@H](/C=C(\C)C(=O)NS(=O)(=O)Cc1cccnc1)C(C)C)C(C)(C)C)C(C)(C)c1ccccc1` [Compound 45, (S,E)-2,5-dimethyl-N-(pyridin-3-ylmethylsulfonyl)-4-((S)—N,3,3-trimethyl-2-((S)-3-methyl-2-(methylamino)-3-phenylbutanamido)butanamido)hex-2-enamide] reads 0.373 nM.

As to `CN[C@H](C(=O)N[C@H](C(=O)N(C)[C@H](/C=C(\C)C(=O)NS(=O)(=O)c1ccc(C2(NC(=O)C(F)(F)F)CC2)cc1)C(C)C)C(C)(C)C)C(C)(C)c1ccccc1` [Compound 62, (S,E)-2,5-dimethyl-N-(4-(1-(2,2,2-trifluoroacetamido)cyclopropyl)phenylsulfonyl)-4-((S)—N,3,3-trimethyl-2-((S)-3-methyl-2-(methylamino)-3-phenylbutanamido)butanamido)hex-2-enamide], the EC50 turned out to be 1.2 nM. Same read-out and setting: as for `CN[C@H](C(=O)N[C@H](C(=O)N(C)[C@H](/C=C(\C)C(=O)NS(=O)(=O)Cc1ccccc1C)C(C)C)C(C)(C)C)C(C)(C)c1ccccc1` [Compound 64, (S,E)-2,5-dimethyl-N-(2-methylbenzylsulfonyl)-4-((S)—N,3,3-trimethyl-2-((S)-3-methyl-2-(methylamino)-3-phenylbutanamido)butanamido)hex-2-enamide], the figure is 0.138 nM; as for `CN[C@H](C(=O)N[C@H](C(=O)N(C)[C@H](/C=C(\C)C(=O)NS(=O)(=O)Cc1ccc(Cl)cc1)C(C)C)C(C)(C)C)C(C)(C)c1ccccc1` [Compound 66, (S,E)-N-(4-chlorobenzylsulfonyl)-2,5-dimethyl-4-((S)—N,3,3-trimethyl-2-((S)-3-methyl-2-(methylamino)-3-phenylbutanamido)butanamido)hex-2-enamide], 0.145 nM; as for `CN[C@H](C(=O)N[C@H](C(=O)N(C)[C@H](/C=C(\C)C(=O)NS(=O)(=O)CCc1ccccc1)C(C)C)C(C)(C)C)C(C)(C)c1ccccc1` [Compound 67, (S,E)-2,5-dimethyl-N-(phenethylsulfonyl)-4-((S)—N,3,3-trimethyl-2-((S)-3-methyl-2-(methylamino)-3-phenylbutanamido)butanamido)hex-2-enamide], 0.562 nM. Still for that read-out and setting: as for `CN[C@H](C(=O)N[C@H](C(=O)N(C)[C@H](/C=C(\C)C(=O)NS(=O)(=O)Cc1ccc(Br)cc1)C(C)C)C(C)(C)C)C(C)(C)c1ccccc1` [Compound 68, (S,E)-N-(4-bromobenzylsulfonyl)-2,5-dimethyl-4-((S)—N,3,3-trimethyl-2-((S)-3-methyl-2-(methylamino)-3-phenylbutanamido)butanamido)hex-2-enamide], the figure is 0.337 nM; as for `CN[C@H](C(=O)N[C@H](C(=O)N(C)[C@H](/C=C(\C)C(=O)NS(=O)(=O)Cc1ccc(C#N)cc1)C(C)C)C(C)(C)C)C(C)(C)c1ccccc1` [Compound 69, (S,E)-N-(4-cyanobenzylsulfonyl)-2,5-dimethyl-4-((S)—N,3,3-trimethyl-2-((S)-3-methyl-2-(methylamino)-3-phenylbutanamido)butanamido)hex-2-enamide], 1.56 nM. Still for that read-out and setting: the result for `CN[C@H](C(=O)N[C@H](C(=O)N(C)[C@H](/C=C(\C)C(=O)NS(=O)(=O)Cc1cccc([N+](=O)[O-])c1)C(C)C)C(C)(C)C)C(C)(C)c1ccccc1` [Compound 70, (S,E)-2,5-dimethyl-N-(3-nitrobenzylsulfonyl)-4-((S)—N,3,3-trimethyl-2-((S)-3-methyl-2-(methylamino)-3-phenylbutanamido)butanamido)hex-2-enamide] reads 0.856 nM.

With `CN[C@H](C(=O)N[C@H](C(=O)N(C)[C@H](/C=C(\C)C(=O)NS(=O)(=O)Cc1ccc(C(C)(C)C)cc1)C(C)C)C(C)(C)C)C(C)(C)c1ccccc1` [Compound 71, (S,E)-N-(4-tert-butylbenzylsulfonyl)-2,5-dimethyl-4-((S)—N,3,3-trimethyl-2-((S)-3-methyl-2-(methylamino)-3-phenylbutanamido)butanamido)hex-2-enamide], the EC50 was found to be 1.02 nM.

Staying with this assay, now noted: Table 6; Compound Cytotoxicity on Jurkat; read-out: EC50.
In the case of `CN[C@H](C(=O)N[C@H](C(=O)N(C)[C@H](/C=C(\C)C(=O)NS(=O)(=O)Cc1ccccc1[N+](=O)[O-])C(C)C)C(C)(C)C)C(C)(C)c1ccccc1` [Compound 72, (S,E)-2,5-dimethyl-N-(2-nitrobenzylsulfonyl)-4-((S)—N,3,3-trimethyl-2-((S)-3-methyl-2-(methylamino)-3-phenylbutanamido)butanamido)hex-2-enamide], the EC50 turned out to be 0.531 nM.
